≈ marks a conversion by molar mass, not a printed value.
Experiments:
[1] = target: T1, human FFA2-eYFP (Homo sapiens, UniProt O15552); assay: [35S]GTPγS incorporation assay, membranes of Flp-In T-Rex 293 cells; assay type: biochemical; settings: for GTPγS pIC50: hFFA2, propionate at EC80, mean ± SEM, three or more experiments; for LLEGTPγS: pIC50, GTPγS – ClogP
T1 construct: expressed in transfected cells; host or cells: membranes of Flp-In T-Rex 293 cells induced to express the construct
T1 sequence (O15552 1-330): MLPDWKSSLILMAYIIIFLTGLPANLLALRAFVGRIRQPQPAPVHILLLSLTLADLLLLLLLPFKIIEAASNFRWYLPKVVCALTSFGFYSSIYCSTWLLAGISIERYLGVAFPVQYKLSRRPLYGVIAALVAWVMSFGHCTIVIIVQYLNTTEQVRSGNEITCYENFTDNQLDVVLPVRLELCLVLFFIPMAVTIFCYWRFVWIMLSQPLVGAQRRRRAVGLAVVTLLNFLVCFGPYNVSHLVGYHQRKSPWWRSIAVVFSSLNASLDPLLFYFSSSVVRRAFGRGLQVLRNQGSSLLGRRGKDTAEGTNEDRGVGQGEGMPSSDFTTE
Experimental: (§1) The activity of the compounds on FFA2 was evaluated in two different functional antagonist assays, both using propionate at EC80 as the agonist. The GTPγS assay reflects receptor activation by directly assessing G protein recruitment, whereas the cAMP assay, performed in whole cells, reflects a physiologically relevant downstream second messenger.
Functional activity of the compounds were tested in a [^35S]GTPγS incorporation assay using membranes of Flp-In T-Rex 293 cells induced to express human FFA2-eYFP. […] The reaction was initiated by addition of [^35S]GTPγS (100 nCi per reaction) containing 1 μM GDP and incubated at 30 °C for 60 min. The reaction was terminated by rapid vacuum filtration through GF/C glass fiber filter-bottom 96-well microplates (PerkinElmer Life Sciences, Beaconsfield, UK) using a UniFilter FilterMate Harvester (PerkinElmer). Unbound radioligands were removed from filters by three washes with ice-cold PBS. MicroScint-20 (PerkinElmer) was added to dried filters, and [^35S]GTPγS binding was quantified by liquid scintillation spectroscopy.

[2] = Microsomal stability; assay type: in vitro ADME, mouse
Experimental: The assay was performed in duplicates essentially as described previously,[58] using male CD1 mouse liver microsomes (Thermo Fischer Scientific, 20 mg/mL), NADPH-regenerating agent Solution A and Solution B (Promega), potassium phosphate buffer (100 mM, pH 7.4), and test compounds (1 mM, diluted from 10 mM DMSO stock in the buffer). The samples were analyzed in an Agilent 6130 Mass Spectrometer instrument using electron spray ionization (ESI) coupled to an Agilent 1200 HPLC system (ESI-LCMS) with a C18 reverse phase column (Zorbax Eclipse XBD-C18, 4.6 mm × 50 mm) using a linear gradient of the binary solvent system of 100% mobile phase A (water:MeCN:formic acid, 95:5:0.1 v/v%) to 100% mobile phase B (MeCN:formic acid, 100:0.1 v/v %) in 6 min, with a flow rate of 1 mL/min.
To a pre-warmed solution of potassium phosphate buffer (135.6 μL) in an Eppendorf tube at 37 °C were added Solution A (7.5 μL), Solution B (1.5 μL), microsomes (3.9 μL), and the test compound (1 mM, 1.5 μL, final concentration = 10 μM). The tube was briefly vortexed and incubated at 37 °C in a thermomixer. At 0, 15, 30, 45, and 60 min, 25 μL of each sample was transferred to an ice-cold solution containing an internal standard (5 μM in MeCN, 12.5 μL). The sample was briefly vortexed and centrifuged for 5 min at 10.000g. The supernatant (25 μL) was transferred to HPLC vial and analyzed by ESI-LCMS in single ion mode. The data was analyzed using GraphPad Prism (version 9).

[3] = Lipophilicity (logD7.4), octanol/PBS7.4 shake flask; assay type: physicochemical; settings: 1-octanol/PBS7.4, pH 7.4; mean of two independent experiments
Experimental: The assay was performed in duplicates essentially as previously described.[58] A glass vial with a screw cap (8 mL) was charged with the test compound (40 μL, 10 mM in DMSO), PBS7.4 (0.01 M, 1980 μL), and 1-octanol (1980 μL). The vial was capped and sealed with a Parafilm and shaken at 700 rpm using an IKA KS 125 basic shaker for 24 h at 25 °C. The Parafilm was removed, and the sample was allowed to equilibrate for 1 h before analysis. One hundred microliters of the octanol phase was withdrawn and diluted 1:10 with MeOH (+0.1% TFA)/MilliQ water (4:1, v/v) and analyzed by HPLC. The interface was removed, and the PBS7.4 phase analyzed directly by HPLC. All analysis was performed in duplicates, and log D7.4 values were calculated from the peak areas (mAU·min) and adjusted for difference in injection volume and concentration-absorption effects from the solvents, using two calibration points per compound per solvent, and dilution of the octanol phase.

[4] = Kinetic aqueous solubility; assay type: physicochemical; settings: phosphate buffer; kinetic solubility in PBS at pH 7.4 and 25 °C
Experimental: Twenty microliters of a 10 mM compound stock solution in DMSO was added to an Eppendorf tube containing 980 μL of phosphate buffer (10 mM, pH = 7.4). The samples were incubated in an Eppendorf Thermomixer (25 °C, 800 rpm) for 24 h. Afterward, the samples were centrifuged for 5 min at 11,000 rpm and the supernatant was filtered (0.2 μm PTFE membrane) before analysis by HPLC. Each compound was analyzed in duplicate. The solubility was calculated from the peak area relative to the reference samples (200 μM in MeOH/MilliQ H2O, 60/40, v/v).

[5] = target: T2, hFFA2 (Homo sapiens, UniProt O15552); assay: cAMP assay, antagonist mode, Flp-In T-Rex 293 cells expressing hFFA2-eYFP; assay type: cell-based; settings: for cAMP pIC50: hFFA2, antagonist mode, propionate at EC80, mean ± SEM, three or more experiments; for LLEcAMP: pIC50, cAMP – ClogP; for LLEcAMP-logD: pIC50, cAMP – logD7.4; for IC50: read-out: hFFA2 cAMP (pIC50) (converted)
T2 construct: expressed in transfected cells; host or cells: Flp-In T-Rex 293 cells, doxycycline-induced
T2 sequence (O15552 1-330): T1 sequence (O15552 1-330)
Experimental: as §1
The hFFA2-eYFP and hFFA3-eYFP Flp-In T-Rex 293 cell lines were maintained in Dulbecco’s modified Eagle mMedium (DMEM, ThermoFisher #11965092) supplemented with 10% (v/v) fetal bovine serum, 100 U/mL penicillin, 100 μg/mL streptomycin, 5 μg/mL blasticidin S, and 200 μg/mL hygromycin B and incubated at 37 °C and 5% CO2 in a humidified incubator. Cells were passaged at 70–80% confluency.
To determine the compound’s ability to activate or inhibit the Gi-coupled FFA2 or FFA3, intracellular cAMP concentrations were determined using Flp-In T-Rex293 cells induced to express hFFA2-eYFP or hFFA3-eYFP. Experiments were carried out using a homogeneous time-resolved FRET-based detection kit (CisBio, PerkinElmer #62AM9PEC) according to the manufacturer’s protocol. The day before the assay, 10,000 cells/well were plated in DMEM supplemented with penicillin/streptomycin (100 units/mL and […], respectively), 5 μg/mL blasticidin S, and 200 μg/mL hygromycin B in 96-well cell culture microplates (Greiner Bio-One) and induced to express hFFA2-eYFP or hFFA3-YFP with 100 ng/mL doxycycline.
In antagonist mode, the cells were pre-incubated for 20 min with antagonist test compounds in HBSS together with 50 μM IBMX at rt. Then, the cells were further incubated for 25 min at rt in HBSS with the agonist compound, sodium propionate at EC80 (51.4 μM for FFA2, 13.2 μM for FFA3), and 3 μM forskolin. Reactions were stopped, and the output was measured with an Envision plate reader using a time-resolved fluorescence protocol, measuring the light emission at 620 and 665 nm. All analyses were performed in triplicate and analyzed using GraphPad Prism (version 9).

[6] = % recovered after 60 min, mouse liver microsomes

GTPγS pIC50 [1] | LLEGTPγS [1] | increased potency over CATPB (3) ([1]; vs 3) | increase in potency over TUG-1958 (4) ([1]; vs 4) [fold] | microsomal stability [2, 6] [%] | microsomal stability ([2]; supplementary CSV) [%] | logD at 25 h [3] | solubility at 24 h [4] [µM] | cAMP pIC50 [5] | LLEcAMP [5] | LLEcAMP-logD [5] | IC50 ([5]; supplementary CSV) [nM] | hFFA2 cAMP (pIC50) ([5]; supplementary CSV) | decrease in potency compared to 16a ([1]; GTPγS assay) [fold] | decrease in potency compared to 16a ([5]; cAMP assay) [fold] | potency decrease on elongated tetrazole linker ([1]; vs 16e, GTPγS assay) | potency decrease on elongated tetrazole linker ([5]; vs 16e, cAMP assay) | Compound
6.71 ± 0.17 | 5.64 | – | – | – | – | – | – | 5.93 ± 0.15 | 4.86 | – | 1450 | – | – | – | – | – | O=C(Cc1ccccn1)N[C@@H](Cc1ccc(C(F)(F)F)cc1)Cc1nnn[nH]1 [Compound 16r, (S)-2-(2-((1-(1H-Tetrazol-5-yl)-3-(4-(trifluoromethyl)phenyl)propan-2-yl)amino)-2-oxoethyl)pyridin-1-ium 2,2,2-trifluoroacetate]
7.29 ± 0.07 | 6.22 | – | – | – | – | – | – | 6.89 ± 0.10 | 5.82 | – | 91.2 | – | 7 | 7 | – | – | O=C(Cc1cccnc1)N[C@@H](Cc1ccc(C(F)(F)F)cc1)Cc1nnn[nH]1 [Compound 16s, (S)-3-(2-((1-(1H-Tetrazol-5-yl)-3-(4-(trifluoromethyl)phenyl)propan-2-yl)amino)-2-oxoethyl)pyridin-1-ium 2,2,2-trifluoroacetate]
6.47 ± 0.15 | 5.40 | – | – | – | – | – | – | 5.74 ± 0.13 | 4.67 | – | 2950 | – | – | – | – | – | O=C(Cc1ccncc1)N[C@@H](Cc1ccc(C(F)(F)F)cc1)Cc1nnn[nH]1 [Compound 16t, (S)-N-(1-(1H-Tetrazol-5-yl)-3-(4-(trifluoromethyl)phenyl)propan-2-yl)-2-(pyridin-4-yl)acetamide]
7.20 ± 0.14 | 5.42 | – | – | – | – | – | – | 6.98 ± 0.13 | 5.20 | – | 95.5 | – | – | – | – | – | O=C(Cc1ccc(Cl)nc1)N[C@@H](Cc1ccc(C(F)(F)F)cc1)Cc1nnn[nH]1 [Compound 16v, (S)-5-(2-((1-(1H-Tetrazol-5-yl)-3-(4-(trifluoromethyl)phenyl)propan-2-yl)amino)-2-oxoethyl)-2-chloropyridin-1-ium 2,2,2-trifluoroacetate]
7.72 ± 0.12 | 3.92 | – | – | – | – | – | – | 7.55 ± 0.14 | 3.75 | – | 30.9 | – | – | – | 5–6 fold | 5–6 fold | O=C(Cc1cccc(Cl)c1)N[C@H](CCc1nnn[nH]1)Cc1ccc(C(F)(F)F)cc1 [Compound 21, (R)-N-(4-(1H-Tetrazol-5-yl)-1-(4-(trifluoromethyl)phenyl)butan-2-yl)-2-(3-chlorophenyl)-acetamide]

Continued, compound first:

Compound | GTPγS pIC50 [1] | LLEGTPγS [1] | increased potency over CATPB (3) ([1]; vs 3) | increase in potency over TUG-1958 (4) ([1]; vs 4) [fold] | microsomal stability [2, 6] [%] | microsomal stability ([2]; supplementary CSV) [%] | logD at 25 h [3] | solubility at 24 h [4] [µM] | cAMP pIC50 [5] | LLEcAMP [5] | LLEcAMP-logD [5] | IC50 ([5]; supplementary CSV) [nM] | hFFA2 cAMP (pIC50) ([5]; supplementary CSV) | decrease in potency compared to 16a ([1]; GTPγS assay) [fold] | decrease in potency compared to 16a ([5]; cAMP assay) [fold] | potency decrease on elongated tetrazole linker ([1]; vs 16e, GTPγS assay) | potency decrease on elongated tetrazole linker ([5]; vs 16e, cAMP assay)
Cc1cccc(CC(=O)N[C@@H](Cc2ccc(C(F)(F)F)cc2)Cc2nnn[nH]2)c1 [Compound 8, (S)-N-(1-(1H-Tetrazol-5-yl)-3-(4-(trifluoromethyl)phenyl)propan-2-yl)-2-(m-tolyl)acetamide] | 8.07 ± 0.08 | 5.01 | more than 10 fold | 4 | 89 | 89 | 1.26 ± 0.07 | 163 (≈ 65.8 µg/mL) | 8.30 ± 0.12 | 5.24 | 7.04 | 5.62 | – | – | – | – | –
O=C(Cc1cccc(Cl)c1)N[C@@H](Cc1ccc(C(F)(F)F)cc1)Cc1nnn[nH]1 [Compound 16e, (S)-N-(1-(1H-Tetrazol-5-yl)-3-(4-(trifluoromethyl)phenyl)propan-2-yl)-2-(3-chlorophenyl)acetamide] | 8.53 ± 0.19 | 5.25 | – | – | 92 | 92 | 1.8 ± 0.09 | 138 (≈ 58.5 µg/mL) | 8.15 ± 0.05 | 4.87 | 6.35 | 6.61 | – | – | – | – | –
O=C(Cc1cccc(Br)c1)N[C@@H](Cc1ccc(C(F)(F)F)cc1)Cc1nnn[nH]1 [Compound 16g, (S)-N-(1-(1H-Tetrazol-5-yl)-3-(4-(trifluoromethyl)phenyl)propan-2-yl)-2-(3-bromophenyl)acetamide] | 8.30 ± 0.21 | 4.87 | – | – | – | – | – | 121 (≈ 56.7 µg/mL) | 8.21 ± 0.09 | 4.78 | – | – | 8.19 ± 0.19 | – | – | – | –
O=C(Cc1cccc(I)c1)N[C@@H](Cc1ccc(C(F)(F)F)cc1)Cc1nnn[nH]1 [Compound 16h, (S)-N-(1-(1H-Tetrazol-5-yl)-3-(4-(trifluoromethyl)phenyl)propan-2-yl)-2-(3-iodophenyl)acetamide] | 8.38 ± 0.05 | 4.69 | – | – | – | – | – | 81 (≈ 41.7 µg/mL) | 8.26 ± 0.08 | 4.57 | – | 6.03 | – | – | – | – | –
O=C(CCc1ccccc1)N[C@@H](Cc1ccc(C(F)(F)F)cc1)Cc1nnn[nH]1 [Compound 16q, (S)-N-(1-(1H-Tetrazol-5-yl)-3-(4-(trifluoromethyl)phenyl)propan-2-yl)-3-phenylpropanamide] | 7.19 ± 0.04 | 4.30 | – | – | – | – | – | – | 6.78 ± 0.14 | 3.89 | – | 186 | – | – | – | – | –

Reference: PMC10547238, “Discovery of Potent Tetrazole Free Fatty Acid Receptor 2 Antagonists” (Journal of Medicinal Chemistry, 2023)
